Assay results reported in PubChem BioAssay (NCI).
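Test compounds were applied to cells in 96-well plates for 48 hours at 5 doses. GI50 is the concentration that inhibits growth by half. TGI marks complete inhibition of growth.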

Assays:
Test in all cases: growth of human tumour cells (NCI), 48 h
HOP-92 NSCLC = test system: HOP-92 NSCLC
PC-3 prostate = test system: PC-3 prostate
HCT-116 colon = test system: HCT-116 colon
RXF 393 renal = test system: RXF 393 renal
OVCAR-3 ovarian = test system: OVCAR-3 ovarian
EKVX NSCLC = test system: EKVX NSCLC
UACC-257 melanoma = test system: UACC-257 melanoma
COLO 205 colon = test system: COLO 205 colon
T-47D breast = test system: T-47D breast
HOP-62 NSCLC = test system: HOP-62 NSCLC
NCI-H460 lung = test system: NCI-H460 lung
SN12C renal = test system: SN12C renal
SF-539 CNS = test system: SF-539 CNS
NCI/ADR-RES ovarian = test system: NCI/ADR-RES ovarian
CCRF-CEM leukemia = test system: CCRF-CEM leukemia
HCT-15 colon = test system: HCT-15 colon
KM12 colon = test system: KM12 colon
A549 NSCLC = test system: A549 NSCLC
SK-MEL-28 melanoma = test system: SK-MEL-28 melanoma
UACC-62 melanoma = test system: UACC-62 melanoma
MDA-MB-435 = test system: MDA-MB-435
SW-620 colon = test system: SW-620 colon
MOLT-4 leukemia = test system: MOLT-4 leukemia
OVCAR-5 ovarian = test system: OVCAR-5 ovarian
SNB-75 CNS = test system: SNB-75 CNS
SF-295 CNS = test system: SF-295 CNS
HT29 colon = test system: HT29 colon
786-0 renal = test system: 786-0 renal
NCI-H226 lung = test system: NCI-H226 lung
A498 renal = test system: A498 renal
SF-268 CNS = test system: SF-268 CNS
MALME-3M melanoma = test system: MALME-3M melanoma
TK-10 renal = test system: TK-10 renal
HS 578T breast = test system: HS 578T breast
UO-31 renal = test system: UO-31 renal
OVCAR-8 ovarian = test system: OVCAR-8 ovarian
MCF7 breast = test system: MCF7 breast
SK-MEL-2 melanoma = test system: SK-MEL-2 melanoma
ACHN renal = test system: ACHN renal
OVCAR-4 ovarian = test system: OVCAR-4 ovarian
BT-549 breast = test system: BT-549 breast
U251 CNS = test system: U251 CNS
MDA-MB-231 breast = test system: MDA-MB-231 breast
DU-145 prostate = test system: DU-145 prostate
SK-MEL-5 melanoma = test system: SK-MEL-5 melanoma
LOX IMVI melanoma = test system: LOX IMVI melanoma
HCC-2998 colon = test system: HCC-2998 colon
CAKI-1 renal = test system: CAKI-1 renal
SK-OV-3 ovarian = test system: SK-OV-3 ovarian
NCI-H522 lung = test system: NCI-H522 lung
IGROV1 ovarian = test system: IGROV1 ovarian
SNB-19 CNS = test system: SNB-19 CNS
HL-60(TB) leukemia = test system: HL-60(TB) leukemia

Oc1cc(Cn2cnc3c(Cl)nc(Cl)nc32)ccc1C12CC3CC(CC(C3)C1)C2
GI50 (HOP-92 NSCLC): 14.6 µM
TGI (HOP-92 NSCLC): 27.8 µM
GI50 (PC-3 prostate): 15.5 µM
TGI (PC-3 prostate): 28.9 µM
GI50 (HCT-116 colon): 14 µM
TGI (HCT-116 colon): 26.9 µM
GI50 (RXF 393 renal): 15.2 µM
TGI (RXF 393 renal): 29.3 µM
GI50 (OVCAR-3 ovarian): 18 µM
TGI (OVCAR-3 ovarian): 36.3 µM
GI50 (EKVX NSCLC): 23.8 µM
TGI (EKVX NSCLC): 53.1 µM
GI50 (UACC-257 melanoma): 19 µM
TGI (UACC-257 melanoma): 39.2 µM
GI50 (COLO 205 colon): 19.9 µM
TGI (COLO 205 colon): 37.2 µM
GI50 (T-47D breast): 21.8 µM
TGI (T-47D breast): 80.6 µM
GI50 (HOP-62 NSCLC): 16.2 µM
TGI (HOP-62 NSCLC): 29.8 µM
GI50 (NCI-H460 lung): 16.4 µM
TGI (NCI-H460 lung): 30.2 µM
GI50 (SN12C renal): 16.5 µM
TGI (SN12C renal): 32.2 µM
GI50 (SF-539 CNS): 23.6 µM
TGI (SF-539 CNS): 45.1 µM
GI50 (NCI/ADR-RES ovarian): 21.9 µM
TGI (NCI/ADR-RES ovarian): 57.2 µM
GI50 (CCRF-CEM leukemia): 2.17 µM
TGI (CCRF-CEM leukemia): 5.78 µM
GI50 (HCT-15 colon): 16.3 µM
TGI (HCT-15 colon): 29.8 µM
GI50 (KM12 colon): 17.5 µM
TGI (KM12 colon): 34.4 µM
GI50 (A549 NSCLC): 18.1 µM
TGI (A549 NSCLC): 33.2 µM
GI50 (SK-MEL-28 melanoma): 16.9 µM
TGI (SK-MEL-28 melanoma): 31 µM
GI50 (UACC-62 melanoma): 16.8 µM
TGI (UACC-62 melanoma): 30.5 µM
GI50 (MDA-MB-435): 19.9 µM
TGI (MDA-MB-435): 48.6 µM
GI50 (SW-620 colon): 24.6 µM
TGI (SW-620 colon): 56.8 µM
GI50 (MOLT-4 leukemia): 3.72 µM
TGI (MOLT-4 leukemia): 11.2 µM
GI50 (OVCAR-5 ovarian): 20.2 µM
TGI (OVCAR-5 ovarian): 45.7 µM
GI50 (SNB-75 CNS): 16.4 µM
TGI (SNB-75 CNS): 32.2 µM
GI50 (SF-295 CNS): 20.5 µM
TGI (SF-295 CNS): 47.9 µM
GI50 (HT29 colon): 16 µM
TGI (HT29 colon): 29.5 µM
GI50 (786-0 renal): 18.5 µM
TGI (786-0 renal): 34.4 µM
GI50 (NCI-H226 lung): 23.3 µM
TGI (NCI-H226 lung): 63.7 µM
GI50 (A498 renal): > 100 µM
TGI (A498 renal): > 100 µM
GI50 (SF-268 CNS): 14.4 µM
TGI (SF-268 CNS): 28 µM
GI50 (MALME-3M melanoma): 11.8 µM
TGI (MALME-3M melanoma): 27.8 µM
GI50 (TK-10 renal): 19.5 µM
TGI (TK-10 renal): 38.8 µM
GI50 (HS 578T breast): 49.6 µM
TGI (HS 578T breast): > 100 µM
GI50 (UO-31 renal): 17.3 µM
TGI (UO-31 renal): 31.1 µM
GI50 (OVCAR-8 ovarian): 23.2 µM
TGI (OVCAR-8 ovarian): 58 µM
GI50 (MCF7 breast): 15 µM
TGI (MCF7 breast): 28.3 µM
GI50 (SK-MEL-2 melanoma): 18.4 µM
TGI (SK-MEL-2 melanoma): 38 µM
GI50 (ACHN renal): 17.9 µM
TGI (ACHN renal): 31.7 µM
GI50 (OVCAR-4 ovarian): 16.4 µM
TGI (OVCAR-4 ovarian): 30 µM
GI50 (BT-549 breast): 17.5 µM
TGI (BT-549 breast): 34.4 µM
GI50 (U251 CNS): 16.6 µM
TGI (U251 CNS): 30.2 µM
GI50 (MDA-MB-231 breast): 15 µM
TGI (MDA-MB-231 breast): 30.3 µM
GI50 (DU-145 prostate): 16.2 µM
TGI (DU-145 prostate): 29.7 µM
GI50 (SK-MEL-5 melanoma): 15 µM
TGI (SK-MEL-5 melanoma): 32 µM
GI50 (LOX IMVI melanoma): 4.12 µM
TGI (LOX IMVI melanoma): 18.6 µM
GI50 (HCC-2998 colon): 16 µM
TGI (HCC-2998 colon): 30.4 µM
GI50 (CAKI-1 renal): 15.4 µM
TGI (CAKI-1 renal): 31.3 µM
GI50 (SK-OV-3 ovarian): 24.7 µM
TGI (SK-OV-3 ovarian): 55.1 µM
GI50 (NCI-H522 lung): 15.2 µM
TGI (NCI-H522 lung): 28.5 µM
GI50 (IGROV1 ovarian): 15.8 µM
TGI (IGROV1 ovarian): 30 µM
GI50 (SNB-19 CNS): 17.6 µM
TGI (SNB-19 CNS): 31.4 µM
GI50 (HL-60(TB) leukemia): 4.36 µM
TGI (HL-60(TB) leukemia): 15.7 µM
